# Results taken from patent US7498327B2, “Indolylalkylamine metabolites as 5-hydroxytryptamine-6 ligands” (Wyeth, priority 2004, dated 2009).
# Target: T1, human cloned 5-HT6 receptors (Homo sapiens, UniProt P50406)
# T1 construct: expressed in transfected cells; host or cells: HeLa cells (membrane preparation)
# Assay: 5-HT6 binding affinity, [3H]-LSD displacement
# Conditions: membranes of Hela cells expressing human cloned 5-HT6 receptors; [3H]-LSD 3.0 nM; 120 min, room temperature
# Protocol: The affinity of test compounds for the serotonin 5-HT6 receptor is evaluated in the following manner. Cultured Hela cells expressing human cloned 5-HT6 receptors are harvested and centrifuged at low speed (1,000× g) for 10.0 min to remove the culture media. The harvested cells are suspended in half volume of fresh physiological phosphate buffered saline solution and recentrifuged at the same speed. This operation is repeated. The collected cells are then homogenized in ten volumes of 50 mM Tris.HCl (pH 7.4) and 0.5 mM EDTA. The homogenate is centrifuged at 40,000× g for 30.0 min and the precipitate is collected. The obtained pellet is resuspended in 10 volumes of Tris.HCl buffer and recentrifuged at the same speed. The final pellet is suspended in a small volume of Tris.HCl buffer and the tissue protein content is determined in aliquots of 10-25 μl volumes. […]
# The bound complex caught on the filter disk is allowed to air dry and the radioactivity is measured in a Packard TopCount® equipped with six photomultiplier detectors, after the addition of 40.0 μl Microscint®-20 scintillant to each shallow well. The unifilter plate is heat-sealed and counted in a PackardTopCount® with a tritium efficiency of 31.0%.
# Binding in the presence of varying concentrations of test compound is expressed as a percentage of specific binding in the absence of test compound. […]
# T1 sequence (P50406 whole entry): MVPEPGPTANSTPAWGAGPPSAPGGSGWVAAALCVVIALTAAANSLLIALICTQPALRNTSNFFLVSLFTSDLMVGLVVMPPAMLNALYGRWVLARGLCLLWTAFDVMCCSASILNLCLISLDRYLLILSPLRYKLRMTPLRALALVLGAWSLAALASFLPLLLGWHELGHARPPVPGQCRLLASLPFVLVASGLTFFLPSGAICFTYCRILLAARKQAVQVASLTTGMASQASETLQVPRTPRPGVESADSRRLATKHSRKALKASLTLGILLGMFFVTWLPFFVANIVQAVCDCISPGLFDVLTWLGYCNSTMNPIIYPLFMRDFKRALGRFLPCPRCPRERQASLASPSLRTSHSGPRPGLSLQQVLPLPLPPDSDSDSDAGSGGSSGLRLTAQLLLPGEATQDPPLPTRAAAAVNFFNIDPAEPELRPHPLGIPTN
smiles,measurement,value
"O=C(O)Cc1cn(S(=O)(=O)c2c(Cl)nc3sccn23)c2ccccc12 [Example 2, {1-[(6-Chloroimidazo[2,1-b][1,3]thiazol-5-yl)sulfonyl]-1H-indol-3-yl}acetic acid]",Ki,248 nM
